Test results as given in US12559732B2, “Compositions and methods for producing human milk oligosaccharides” (NORTH CAROLINA STATE UNIVERSITY, priority 2020, dated 2026).

What was measured:
[1] = molecular target: T1, Hamamotoa (Sporobolomyces) singularis β-hexosyl-transferase (BHT), truncated variant rBHT(57-594)-HIS (residues 1-56 removed); MFα-rBht(57-594)-HIS SEQ ID NO: 52 (Hamamotoa singularis, UniProt Q564N5); conditions: 0.08-10.4 mM ONP-Glu, 20, 30, 42 and 55° C.
T1 sequence (Q564N5 57-594): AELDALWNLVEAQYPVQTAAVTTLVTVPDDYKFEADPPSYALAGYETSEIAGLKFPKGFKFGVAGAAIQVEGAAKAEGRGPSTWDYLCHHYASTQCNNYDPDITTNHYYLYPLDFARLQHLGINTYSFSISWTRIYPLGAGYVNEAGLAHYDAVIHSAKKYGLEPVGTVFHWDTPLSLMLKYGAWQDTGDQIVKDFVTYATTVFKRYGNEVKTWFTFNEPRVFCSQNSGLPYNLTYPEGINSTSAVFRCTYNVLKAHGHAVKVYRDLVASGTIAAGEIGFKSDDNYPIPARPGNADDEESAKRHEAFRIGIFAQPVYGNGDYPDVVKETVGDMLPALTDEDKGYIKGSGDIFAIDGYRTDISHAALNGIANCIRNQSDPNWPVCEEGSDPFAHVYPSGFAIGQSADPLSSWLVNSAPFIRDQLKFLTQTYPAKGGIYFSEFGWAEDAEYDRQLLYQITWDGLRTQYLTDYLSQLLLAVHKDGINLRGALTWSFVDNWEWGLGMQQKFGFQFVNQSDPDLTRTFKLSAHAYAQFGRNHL

[2] = molecular target: T2, Hamamotoa (Sporobolomyces) singularis β-hexosyl-transferase (BHT), truncated variant rBHT(23-594)-HIS (residues 1-22 removed); MFα-rBht(23-594)-HIS SEQ ID NO: 38 (Hamamotoa singularis, UniProt Q564N5); assay: Kinetics of ONP-Glu cleavage by purified soluble rBHT(23-594)-HIS; type: biochemical; conditions: 0.08-10.4 mM ONP-Glu, 20, 30, 42 and 55° C.
T2 construct: codon-optimized gene
Text: (§1) K. pastoris Transformation and Expression. […] Expression and purification have been described previously.
(§2) Kinetic parameters of secreted soluble rBHT variants.

[3] = molecular target: Hamamotoa (Sporobolomyces) singularis β-hexosyl-transferase (BHT), truncated variant rBHT(54-594)-HIS (residues 1-53 removed); MFα-rBht(54-594)-HIS SEQ ID NO: 50 (Hamamotoa singularis, UniProt Q564N5); assay: Kinetics of ONP-Glu cleavage by purified soluble rBHT(54-594)-HIS; type: biochemical; conditions: 0.08-10.4 mM ONP-Glu, 20, 30, 42 and 55° C.
Text: as §1, §2

[4] = molecular target: Hamamotoa (Sporobolomyces) singularis β-hexosyl-transferase (BHT), truncated variant rBHT(32-594)-HIS (residues 1-31 removed); MFα-rBht(32-594)-HIS SEQ ID NO: 48 (Hamamotoa singularis, UniProt Q564N5); assay: Kinetics of ONP-Glu cleavage by purified soluble rBHT(32-594)-HIS; type: biochemical; conditions: 0.08-10.4 mM ONP-Glu, 20, 30, 42 and 55° C.
Text: as §1, §2

[5] = tested on: Hamamotoa (Sporobolomyces) singularis β-hexosyl-transferase (BHT, EC 3.2.1.21), native; conditions: lactose concentrations above 20%; cited from earlier work

Row | Compound | Km (affinity for the substrate ONP-Glu) [1] | kcat (turnover activity, ONP-Glu) [1] | Km (affinity for the substrate ONP-Glu) [2] | kcat (turnover activity, ONP-Glu) [2] | Km (affinity for the substrate ONP-Glu) [3] | kcat (turnover activity, ONP-Glu) [3] | Km (affinity for the substrate ONP-Glu) [4] | kcat (turnover activity, ONP-Glu) [4] | inhibition by lactose [5]
1 | O=[N+]([O-])c1ccccc1O[C@@H]1O[C@H](CO)[C@@H](O)[C@H](O)[C@H]1O [ONP-Glu] | retain similar affinity for the substrate ONP-Glu (Km) | retain similar affinity for the substrate ONP-Glu (Km) and turnover activity (kcat) | retain similar affinity for the substrate ONP-Glu (Km) | retain similar affinity for the substrate ONP-Glu (Km) and turnover activity (kcat) | retain similar affinity for the substrate ONP-Glu (Km) | retain similar affinity for the substrate ONP-Glu (Km) and turnover activity (kcat) | retain similar affinity for the substrate ONP-Glu (Km) | retain similar affinity for the substrate ONP-Glu (Km) and turnover activity (kcat) | –
2 | OC[C@H]1O[C@@H](O[C@H]2[C@H](O)[C@@H](O)C(O)O[C@@H]2CO)[C@H](O)[C@@H](O)[C@H]1O (stereo partly drawn) [lactose] | – | – | – | – | – | – | – | – | does not appear to be inhibited by lactose concentrations above 20%
